Laboratory results reported in patent US6572788B2, “Amine oxide wood preservatives” (Lonza, Inc., priority 2000, dated 2003).
≈ marks a conversion by molar mass, not a printed value. Where “and” joins values, the source holds several entries; their conditions need not be identical. Equal entries are not always repeated. Where two headings read alike, the source gives them in different places. Each block holds one compound with its values, some of them ahead of it.

Tests used:
[1] = tested on: Gloeophyllum trabeum (G. trabeum), a brown rot fungus; assay: Agar plate method, fungus growth inhibition; type: cell-based
Procedure: (§1) The efficacy of aqueous solutions of amine oxides and didecyldimethyl ammonium chloride to inhibit fungus growth was evaluated by the agar plate method known in the art. […] The fungi tested were Trametes versicolor (T. versicolor), a white rot fungus; Gloeophyllum trabeum (G. trabeum), a brown rot fungus which is tolerant of arsenic and phenolic type wood preservatives; Poria placenta (P. placenta), a brown rot fungus which is tolerant to copper in wood preservatives; Lentinus lepideus (L. lepideus), a brown rot fungus which is tolerant to creosote; Coniophora puteana (C. puteana), a brown rot fungus; and Chaetomium globsum (C. globsum), a soft rot fungus.

[2] = tested on: Poria placenta (P. placenta), a brown rot fungus; assay: Agar plate method, fungus growth inhibition; type: cell-based
Procedure: as §1

[3] = tested on: Trametes versicolor (T. versicolor), a white rot fungus; assay: Agar plate method, fungus growth inhibition; type: cell-based; settings: 50% retardation of growth
Procedure: as §1

[4] = tested on: Chaetomium globsum (C. globsum), a soft rot fungus; assay: Agar plate method, fungus growth inhibition; type: cell-based
Procedure: as §1

[5] = tested on: T. versicolor (white rot fungi); assay: Agar dilution plate method, wood rot fungi; type: cell-based; settings: for MIC: Trametes versicolor, read-out: MIC (ppm of amine oxides)
Procedure: (§2) The efficacy of the aqueous amine oxide solutions in Table 14 at various concentrations against the wood rot fungi T. versicolor (white rot fungi), G. trabeum (brown rot fungi), P. placenta (brown rot fungi), and C. globosum (soft rot decay fungi) were determined using the agar dilution plate method well known in the art. […] The percent retardation of the fungi was determined by the percentage change in the diameter of the fungi on the agar plate (i.e. Percent Retardation=((Diameter of Control)−(Diameter of Treated Fungi))/(Diameter of Control)*100%).

[6] = tested on: P. placenta (brown rot fungi); assay: Agar dilution plate method, wood rot fungi; type: cell-based; settings: for MIC: read-out: MIC (ppm of amine oxides)
Procedure: as §2

[7] = tested on: G. trabeum (brown rot fungi); assay: Agar dilution plate method, wood rot fungi; type: cell-based; settings: for MIC: Gloeophyllum trabeum, read-out: MIC (ppm of amine oxides)
Procedure: as §2

[8] = tested on: C. globosum (soft rot decay fungi); assay: Agar dilution plate method, wood rot fungi; type: cell-based; settings: for MIC: Chaetomium globosum, read-out: MIC (ppm of amine oxides)
Procedure: as §2

[9] = tested on: stains, molds, and fungi; assay: Wood preserving efficacy on freshly cut green chestnut oak (dip treatment); parameters: scale not given here
[10] = tested on: stains, molds, and fungi; assay: Wood preserving efficacy on freshly cut beech wood (dip treatment); settings: beech wood pieces (Example 15); further: key: 4 - Clean with no visible stain or mold; 3 - Trace amount of white/black fungal growth; 2 - Black and/or white fungal growth visible on all faces and ends; 1 - Heavy fungal growth
Procedure: The wood preserving efficacy of each aqueous test solution in Table 18 below was tested on freshly cut beech wood (Fagus grandifolia Ehrh.) as follows. All percentages in Table 18 are by weight. A 1″ branch of a beech tree was split into two pieces. The bark was left on the pieces. Each piece was dipped into the test solution for about 1 minute and blotted with a paper towel to remove excess liquid. […] The aqueous test solutions were prepared by mixing the active ingredient with water.

[11] = tested on: stains, molds, and fungi; assay: Wood preserving efficacy on freshly cut tulip wood (dip treatment); further: key: 4 - Clean with no visible stain or mold; 3 - Trace amount of white/black fungal growth; 2 - Black and/or white fungal growth visible on all faces and ends; 1 - Heavy fungal growth
Procedure: The wood preserving efficacy of each aqueous test solution in Table 17 below was tested on freshly cut tulip wood (also known as Tulip-Popular, Yellow Popular, and Liriodendron tulipfera L.) as follows. All percentages in Table 17 are by weight. Pieces of tulip wood cut from a 4″ debarked branch were cut into pieces. Each piece was then split into 4 sections. Each section was dipped into the test solution for about 1 minute and blotted with a paper towel to remove excess liquid. The sections were sealed in a clear plastic bag and stored at ambient conditions. The sections were observed after 1, 3, 7, and 11 weeks for the growth of stains, molds, and fungi. The aqueous test solutions were prepared by mixing the active ingredient with water.

[12] = tested on: stains, molds, and fungi; assay: Wood preserving efficacy on freshly cut white birch wood (dip treatment, sealed bag); parameters: key: 4 - Clean with no visible stain or mold; 3 - Trace amount of white/black fungal growth; 2 - Black and/or white fungal growth visible on all faces and ends; 1 - Heavy fungal growth
Procedure: The wood preserving efficacy of each aqueous test solution in Table 1 below was tested on freshly cut white birch wood as follows. All percentages in Table 1 are by weight. A branch of white birch tree measuring about 3 inches in diameter was cut into pieces about 6 inch in length. Each piece was then split into 4 sections. Each section was dipped into the test solution for about 1 minute and blotted with a paper towel to remove excess liquid. The sections were sealed in a clear plastic bag and stored at ambient conditions. The sections were observed after 1, 3, 7, and 12 weeks for the growth of stains, molds, and fungi. The aqueous test solutions were prepared by mixing the active ingredient with water.

[13] = T. versicolor, 100% growth retardation, Table 14
[14] = P. placenta, 100% growth retardation, Table 14
[15] = G. trabeum, 100% growth retardation, Table 14
[16] = C. globosum, 100% growth retardation, Table 14
[17] = 3 weeks, listed as 0.5% Dodecyl DMAO
[18] = 3 weeks, listed as 1.0% Dodecyl DMAO
[19] = 7 weeks, listed as 0.5% Dodecyl DMAO
[20] = 7 weeks, listed as 1.0% Dodecyl DMAO
[21] = 11 weeks, listed as 0.5% Dodecyl DMAO
[22] = 11 weeks, listed as 1.0% Dodecyl DMAO

- IC50 [1]: 250-400 ppm
- IC50 [2]: 300 ppm
- IC50 [3]: 800 ppm
- IC50 [4]: 400 ppm
- MIC [5, 13]: 750 µg/mL (≈ 4.33 mM)
- MIC [6, 14]: 1000 µg/mL (≈ 5.77 mM)
- MIC [7, 15]: 1000 µg/mL (≈ 5.77 mM)
- MIC [8, 16]: > 1000 µg/mL
Compound: CCCCCCCC[N+](C)(C)[O-] [Octyldimethylamine oxide]

Compound: CCCCCCCCCCCC[N+]1([O-])CCOCC1 [Lauryl morpholine N-oxide, lauryl morpholine N-oxide]
- MIC (ppm of amine oxides) [5, 13]: 750 ppm
- MIC (ppm of amine oxides) [6, 14]: 500 ppm
- MIC (ppm of amine oxides) [7, 15]: 1000 ppm
- MIC (ppm of amine oxides) [8, 16]: >1000 ppm

Compound: CC(O)(P(=O)(O)O)P(=O)(O)O [1-Hydroxyethylidene-1,1-diphosphonic acid]
- Rating of treated green chestnut oak sections vs. Time ([9]; 2 weeks): 2
- Rating of treated green chestnut oak sections vs. Time ([9]; 4 weeks): 2
- Rating of treated green chestnut oak sections vs. Time ([9]; 5 weeks): 1
- Rating of treated green chestnut oak sections vs. Time ([9]; 9 weeks): 1

Compound: CCCCCCCCCCCC[N+](C)(C)[O-] [Dodecyl dimethylamine oxide, dodecyl dimethylamine oxide]
- Rating of treated tulip sections vs. Time ([10]; 1 week, listed as 0.5% Dodecyl DMAO): 4
- Rating of treated tulip sections vs. Time ([10]; 1 week, listed as 1.0% Dodecyl DMAO): 4 and 3.5
- Rating of treated tulip sections vs. Time [10, 17]: 4
- Rating of treated tulip sections vs. Time [10, 18]: 2 and 3
- Rating of treated tulip sections vs. Time [10, 19]: 2.5
- Rating of treated tulip sections vs. Time [10, 20]: 2
- Rating of treated tulip sections vs. Time [10, 21]: 2.5
- Rating of treated tulip sections vs. Time [10, 22]: 2 and 1
- MIC [5]: 250 µg/mL (≈ 1.09 mM)
- MIC [6]: 250 µg/mL (≈ 1.09 mM)
- MIC [7]: 250 µg/mL (≈ 1.09 mM)
- MIC [8]: > 1000 µg/mL
- Rating of treated tulip sections vs. Time ([11]; 1 week): 4
- Rating of treated tulip sections vs. Time [11, 17]: 3
- Rating of treated tulip sections vs. Time [11, 18]: 4
- Rating of treated tulip sections vs. Time [11, 19]: 2
- Rating of treated tulip sections vs. Time [11, 20]: 4 and 3
- Rating of treated tulip sections vs. Time [11, 21]: 1
- Rating of treated tulip sections vs. Time [11, 22]: 4
- Rating of treated green chestnut oak sections vs. Time ([9]; 2 weeks): 3
- Rating of treated green chestnut oak sections vs. Time ([9]; 4 weeks): 2
- Rating of treated green chestnut oak sections vs. Time ([9]; 5 weeks): 2
- Rating of treated green chestnut oak sections vs. Time ([9]; 9 weeks): 1

- IC50 [1]: 15-25 ppm
- IC50 [2]: 2-5 ppm
- IC50 [3]: 70 ppm
- IC50 [4]: 80-100 ppm
- MIC [5, 13]: > 1000 µg/mL
- MIC [6, 14]: > 1000 µg/mL
- MIC [7, 15]: > 1000 µg/mL
- MIC [8, 16]: > 1000 µg/mL
Compound: CCCCCCCCCCCCCC[N+](C)(C)[O-] [Tetradecyl dimethylamine oxide]
- Rating of treated white birch sections vs. Time ([12]; 1 week): 4
- Rating of treated white birch sections vs. Time ([12]; 3 weeks): 3
- Rating of treated white birch sections vs. Time ([12]; 7 weeks): 2
- Rating of treated white birch sections vs. Time ([12]; 12 weeks): 2

- MIC (ppm of amine oxides) [5, 13]: >1000 ppm
- MIC (ppm of amine oxides) [6, 14]: >1000 ppm
- MIC (ppm of amine oxides) [7, 15]: 1000 ppm
- MIC (ppm of amine oxides) [8, 16]: >1000 ppm
Compound: CCCCCCCCCCCC[N+](C)([O-])Cc1ccccc1 (centres unmarked) [Dodecyl-BMAO]

Compound: Tallow di(hydroxyethyl)amine oxide
- MIC (ppm of amine oxides) [5, 13]: >1000 ppm
- MIC (ppm of amine oxides) [6, 14]: >1000 ppm
- MIC (ppm of amine oxides) [7, 15]: >1000 ppm
- MIC (ppm of amine oxides) [8, 16]: >1000 ppm

Compound: Coco-di(hydroxyethyl)amine oxide
- MIC (ppm of amine oxides) [5, 13]: 500 ppm
- MIC (ppm of amine oxides) [6, 14]: 500 ppm
- MIC (ppm of amine oxides) [7, 15]: 500 ppm
- MIC (ppm of amine oxides) [8, 16]: >1000 ppm

- IC50 [1]: 20-40 ppm
- IC50 [2]: 15-25 ppm
- IC50 [3]: 300-500 ppm
- IC50 [4]: 50-100 ppm
- MIC [5, 13]: 750 µg/mL (≈ 3.72 mM)
- MIC [6, 14]: 500 µg/mL (≈ 2.48 mM)
- MIC [7, 15]: 250 µg/mL (≈ 1.24 mM)
- MIC [8, 16]: > 1000 µg/mL
Compound: CCCCCCCCCC[N+](C)(C)[O-] [Decyldimethylamine oxide]
- Rating of treated white birch sections vs. Time ([12]; 1 week): 3
- Rating of treated white birch sections vs. Time ([12]; 3 weeks): 2
- Rating of treated white birch sections vs. Time ([12]; 7 weeks): 2
- Rating of treated white birch sections vs. Time ([12]; 12 weeks): 2

- IC50 [1]: 250 ppm
- IC50 [2]: 20-50 ppm
- IC50 [3]: 800 ppm
- IC50 [4]: 600 ppm
- MIC [5, 13]: > 1000 µg/mL
- MIC [6, 14]: > 1000 µg/mL
- MIC [7, 15]: > 1000 µg/mL
- MIC [8, 16]: > 1000 µg/mL
Compound: CCCCCCCCCCCCCCCCCC[N+](C)(C)[O-] [Octadecyl dimethylamine oxide]
